# Values of other authors as cited in patent publication US20020120149A1, “Substituted hydrazine derivatives” (priority 2000, published 2002).
# System: NMDA receptor
# Settings: in vitro at concentrations at which clinical efficacy is seen
smiles,measurement,value
O=C(CCCN1CCC(O)(c2ccc(Cl)cc2)CC1)c1ccc(F)cc1 [haloperidol],increase in NMDA receptor activity,~40%
